Data as given in patent publication US12435066B2, “Substituted tricyclic compounds” (LUPIN LIMITED, priority 2019, dated 2025).

System: pERK in DLD1 cells
Test: ERK phosphorylation assay after EGF stimulation
Assay type: cell-based
Conditions: Homo sapiens, DLD-1, compound 2 h, 200 ng/ml hEGF 5 minutes, alphascreen pERK, read-out: ERK phosphorylation inhibition IC50
Method: Example-128: ERK Phosphorylation Assay Protocol
Compounds were tested for their ability to inhibit pERK after EGF stimulation in DLD1 cells. Cells were seeded at 0.2 million cells per well in 96 well cell binding tissue culture plate in 100 μL complete media and were allowed to settle overnight (16 to 20 h). On the following day, cells were treated with various concentrations of test compounds for 2 h followed by stimulation with 200 ng/ml hEGF (diluted in PBS) for 5 minutes. Cells were then washed once with PBS and lysed in freshly prepared lysis buffer (provided with alphascreen surefire ERK1/2 p-T202/Y204 assay kit, cat no: TGRESB10K, Perkin Elmer). Lysis was carried out in plate shaker for 10-15 mins. Lysate was transferred to […] white opti-plate (Perkin Elmer) and alphascreen for pERK was carried out as per manufacturer's instructions. Plate was read after 2 h incubation in plate shaker at […] 300 RPM, 25-28° C.

| IC50 [nM] | SMILES |
| --- | --- |
| 201 to 500 | Cc1cc(N)cc(C(C)Nc2nc(C)nc3c4c(c(N5CCOCC5)cc23)CCC4)c1 (single isomer, unassigned) [Compound 80, N-(1-(3-amino-5-methylphenyl)ethyl)-2-methyl-6-morpholino-8,9-dihydro-7H-cyclopenta[h]quinazolin-4-amine] |
| 1 to 200 | Cc1nc(N[C@H](C)c2cc(N)cc(C(F)(F)F)c2)c2cc(N3CCC4(CCCO4)CC3)c3c(c2n1)CCC3 [Compound 13, (R)—N-(1-(3-amino-5-(trifluoromethyl)phenyl)ethyl)-2-methyl-6-(1-oxa-8-azaspiro[4.5]decan-8-yl)-8,9-dihydro-7H-cyclopenta[h]quinazolin-4-amine] |
| 201 to 500 | COC[C@@H]1CN(c2cc3c(N[C@H](C)c4cc(N)cc(C(F)(F)F)c4)nc(C)nc3c3c2CCC3)CCO1 [Compound 32, N—((R)-1-(3-amino-5-(trifluoromethyl)phenyl)ethyl)-6-((S)-2-(methoxymethyl)morpholino)-2-methyl-8,9-dihydro-7H-cyclopenta[h]quinazolin-4-amine] |
| 1 to 200 | CC(=O)N1CC=C(c2cc3c(N[C@H](C)c4cc(N)cc(C(F)(F)F)c4)nc(C)nc3c3c2CCC3)CC1 [Compound 90, (R)-1-(4-(4-((1-(3-amino-5-(trifluoromethyl)phenyl)ethyl)amino)-2-methyl-8,9-dihydro-7H-cyclopenta[h]quinazolin-6-yl)-3,6-dihydropyridin-1(2H)-yl)ethan-1-one] |
| 201 to 500 | Cc1nc(N[C@H](C)c2cc(N)cc(C(F)(F)F)c2)c2cc(C3CCN(C(=O)C4CC4)CC3)c3c(c2n1)CCC3 [Compound 100, (R)-(4-(4-((1-(3-amino-5-(trifluoromethyl)phenyl)ethyl)amino)-2-methyl-8,9-dihydro-7H-cyclopenta[h]quinazolin-6-yl)piperidin-1-yl)(cyclopropyl)methanone] |
| 1 to 200 | CC(=O)N1CCC(c2cc3c(N[C@H](C)c4cc(N)cc(C(F)(F)F)c4)nc(C)nc3c3c2CCC3)CC1 [Compound 102, (R)-1-(4-(4-((1-(3-amino-5-(trifluoromethyl)phenyl)ethyl)amino)-2-methyl-8,9-dihydro-7H-cyclopenta[h]quinazolin-6-yl)piperidin-1-yl)ethan-1-one] |
| 201 to 500 | Cc1nc(N[C@H](C)c2cc(N)cc(C(F)(F)F)c2)c2cc(C3CCOCC3)c3c(c2n1)CCC3 [Compound 104, (R)—N-(1-(3-amino-5-(trifluoromethyl)phenyl)ethyl)-2-methyl-6-(tetrahydro-2H-pyran-4-yl)-8,9-dihydro-7H-cyclopenta[h]quinazolin-4-amine] |
| 1 to 200 | CC(=O)N1CCC(c2cc3c(N[C@H](C)c4cc(N)cc(C(F)(F)F)c4)nc(C)nc3c3c2CCCC3)CC1 [Compound 105, (R)-1-(4-(4-((1-(3-amino-5-(trifluoromethyl)phenyl)ethyl)amino)-2-methyl-7,8,9,10-tetrahydrobenzo[h]quinazolin-6-yl)piperidin-1-yl)ethan-1-one] |
| 201 to 500 | Cc1nc(N[C@H](C)c2cc(N)cc(C(F)(F)F)c2)c2cc(C3CCC(=O)CC3)c3c(c2n1)CCC3 [Compound 124, (R)-4-(4-((1-(3-amino-5-(trifluoromethyl)phenyl)ethyl)amino)-2-methyl-8,9-dihydro-7H-cyclopenta[h]quinazolin-6-yl)cyclohexan-1-one] |
| 1 to 200 | Cc1nc(N[C@H](C)c2cc(N)cc(C(F)(F)F)c2)c2cc(C3CCC(O)CC3)c3c(c2n1)CCC3 (stereo partly drawn) [Compound 125, (R)-4-(4-((1-(3-amino-5-(trifluoromethyl)phenyl)ethyl)amino)-2-methyl-8,9-dihydro-7H-cyclopenta[h]quinazolin-6-yl)cyclohexan-1-ol] |

More lines, now with the values behind:

| SMILES | IC50 [nM] |
| --- | --- |
| Cc1nc(N[C@H](C)c2cc(N)cc(C(F)(F)F)c2)c2cc(O[C@H]3CCOC3)c3c(c2n1)CC(C)O3 (mixture of isomers) [Compound 118a, (R/S)—N—((R)-1-(3-amino-5-(trifluoromethyl)phenyl)ethyl)-2,8-dimethyl-6-(((S)-tetrahydrofuran-3-yl)oxy)-8,9-dihydrofuro[2,3-h]quinazolin-4-amine] | 1 to 200 |
| Cc1nc(NC(C)c2cc(N)cc(C(F)F)c2)c2cc(N3CC4(COC4)C3)c3c(c2n1)CC(C)(C)O3 (racemic) [Compound 116, (R/S)—N-(1-(3-amino-5-(difluoromethyl)phenyl)ethyl)-2,8,8-trimethyl-6-(2-oxa-6-azaspiro[3.3]heptan-6-yl)-8,9-dihydrofuro[2,3-h]quinazolin-4-amine] | 1 to 200 |
| Cc1nc(NC(C)c2cccc(C(=O)C(F)(F)F)c2)c2cc(N3CCOCC3)c3c(c2n1)CCC3 (racemic) [Compound 120, (R/S)-2,2,2-trifluoro-1-(3-(1-((2-methyl-6-morpholino-8,9-dihydro-7H-cyclopenta[h]quinazolin-4-yl)amino)ethyl)phenyl)ethan-1-one] | 201 to 500 |
| Cc1nc(NC(C)c2cccc(C(C)(C)CO)c2)c2cc(N3CC4(COC4)C3)c3c(c2n1)CCC3 (single isomer, unassigned) [Compound 6, 2-methyl-2-(3-(1-((2-methyl-6-(2-oxa-6-azaspiro[3.3]heptan-6-yl)-8,9-dihydro-7H-cyclopenta[h]quinazolin-4-yl)amino)ethyl)phenyl)propan-1-ol] | 201 to 500 |
| Cc1nc(NC(C)c2cccc(C(F)(F)F)c2F)c2cc(N3CC4(COC4)C3)c3c(c2n1)CCC3 (single isomer, unassigned) [Compound 34, N-(1-(2-fluoro-3-(trifluoromethyl)phenyl)ethyl)-2-methyl-6-(2-oxa-6-azaspiro[3.3]heptan-6-yl)-8,9-dihydro-7H-cyclopenta[h]quinazolin-4-amine] | 1 to 200 |
| Cc1nc(NC(C)c2cccc(C(F)(F)CO)c2C)c2cc(N3CC4(COC4)C3)c3c(c2n1)CCC3 (single isomer, unassigned) [Compound 41, 2,2-difluoro-2-(2-methyl-3-(1-((2-methyl-6-(2-oxa-6-azaspiro[3.3]heptan-6-yl)-8,9-dihydro-7H-cyclopenta[h]quinazolin-4-yl)amino)ethyl)phenyl)ethan-1-ol] | 1 to 200 |
| COC[C@H]1CN(c2cc3c(NC(C)c4cccc(C(F)(F)CO)c4C)nc(C)nc3c3c2CCC3)CCO1 (single isomer, unassigned) [Compound 42] | 1 to 200 |
| Cc1nc(N[C@H](C)c2cccc(C(F)(F)C(C)(C)O)c2F)c2cc(N3CC[C@](C)(O)C3)c3c(c2n1)CCC3 (single isomer, unassigned) [Compound 61b] | 201 to 500 |
| Cc1nc(N[C@H](C)c2cccc(C(F)(F)CO)c2F)c2cc(N3CC[C@](C)(O)C3)c3c(c2n1)CCC3 (single isomer, unassigned) [Compound 67a] | 1 to 200 |
| COCC1CN(c2cc3c(N[C@H](C)c4cccc(C(F)(F)CO)c4F)nc(C)nc3c3c2CCC3)C1 [Compound 9, (R)-2,2-difluoro-2-(2-fluoro-3-(1-((6-(3-(methoxymethyl)azetidin-1-yl)-2-methyl-8,9-dihydro-7H-cyclopenta[h]quinazolin-4-yl)amino)ethyl)phenyl)ethan-1-ol] | 201 to 500 |
| Cc1nc(N[C@H](C)c2cccc(C(F)(F)C(C)(C)O)c2F)c2cc(N3CCNC(=O)C3)c3c(c2n1)CCC3 [Compound 66, (R)-4-(4-((1-(3-(1,1-difluoro-2-hydroxy-2-methylpropyl)-2-fluorophenyl)ethyl)amino)-2-methyl-8,9-dihydro-7H-cyclopenta[h]quinazolin-6-yl)piperazin-2-one] | 1 to 200 |
| Cc1nc(N[C@H](C)c2cccc(C(F)(F)CCO)c2F)c2cc(N3CC4(COC4)C3)c3c(c2n1)CCC3 [Compound 70, (R)-3,3-difluoro-3-(2-fluoro-3-(1-((2-methyl-6-(2-oxa-6-azaspiro[3.3]heptan-6-yl)-8,9-dihydro-7H-cyclopenta[h]quinazolin-4-yl)amino)ethyl)phenyl) propan-1-ol] | 1 to 200 |
| Cc1nc(N[C@H](C)c2cccc(C(F)(F)CO)c2F)c2cc(N3CCO[C@@H](CO)C3)c3c(c2n1)CCC3 [Compound 86, 2,2-difluoro-2-(2-fluoro-3-((R)-1-((6-((R)-2-(hydroxymethyl)morpholino)-2-methyl-8,9-dihydro-7H-cyclopenta[h]quinazolin-4-yl)amino)ethyl)phenyl)ethan-1-ol] | 1 to 200 |
| Cc1nc(N[C@H](C)c2cccc(C(F)(F)C(C)(C)O)c2F)c2cc(-c3ccc(=O)n(C)c3)c3c(c2n1)N(C)C(=O)C(C)(C)O3 [Compound 122, (R)-4-((1-(3-(1,1-difluoro-2-hydroxy-2-methylpropyl)-2-fluorophenyl)ethyl)amino)-2,8,8,10-tetramethyl-6-(1-methyl-6-oxo-1,6-dihydropyridin-3-yl)-8H-[1,4]oxazino[2,3-h]quinazolin-9(10H)-one] | 201 to 500 |
| Cc1nc(N[C@H](C)c2cccc(C(F)(F)C(C)(C)O)c2F)c2cc(N3CCOCC3=O)c3c(c2n1)CCC3 [Compound 123, (R)-4-(4-((1-(3-(1,1-difluoro-2-hydroxy-2-methylpropyl)-2-fluorophenyl)ethyl)amino)-2-methyl-8,9-dihydro-7H-cyclopenta[h]quinazolin-6-yl)morpholin-3-one] | 201 to 500 |
